Results reported in patent publication US7964628B2, “Fibrinogen receptor antagonists and their use” (Piramal Life Sciences Limited, priority 2003, dated 2011).
Counter-ions that a name gives are not always drawn.

Tests used:
[1] = system: ADP-induced human platelet aggregation; experiment: Mouse ex vivo studies: plasma of orally dosed mice tested on ADP-induced human platelet aggregation; conditions: 1 mg/kg, p.o; for Last time point * (time in hours): time point after which the activity fell below 30%; for Activity (%) at last time point / Activity (%) at peak: ex vivo in mice
Experimental: Mouse ex vivo Studies: (Weller, T., Alig, L., et al J. Med. Chem., 1996, 39, 3139-3147)
Mice of either sex weighing between 25-35 g were orally fed the test compound. Blood was collected, from the abdominal aorta into ACD solution, at different time-points ranging from 15 min to 6 h. The blood samples were centrifuged at 2000×g for 10 min to get PFP. This plasma was separated and used as test sample to study its effect on ADP-induced human platelet aggregation (Table 3).

[2] = system: ADP-induced guinea pig platelet aggregation; experiment: Guinea pig ex vivo studies: ADP-induced guinea pig platelet aggregation after oral dosing; conditions: ex vivo in Guinea pigs, 3.1 mg/kg, p.o; for Last time point * (time in hours): time point after which the activity fell below 30%
Experimental: Guinea Pig Ex vivo Studies:
Guinea pigs of either sex weighing between 500-800 g were orally fed the test compound. Blood was collected, from the carotid artery into ACD solution, at different time-points ranging from 1 to 24 h. PRP was separated and the platelet count adjusted to 3×10^8 platelets/ml using PFP. The effect of the test compound on ADP-induced guinea pig platelet aggregation was studied (Table 4).

Structure (SMILES)	melting point [°C]	further results
CCOC(=O)COc1ccc(C(CN2Cc3cc(C(=N)NO)ccc3C2=O)=NO)cc1OCC(=O)OCC [Example 23, (2-Ethoxycarbonylmethoxy-4-{2-[5-(N-hydroxycarbamimidoyl)-1-oxo-1,3-dihydro-isoindol-2-yl]-1-hydroxyimino-ethyl}-phenoxy)-acetic acid ethyl ester]	181 to 182	Activity (%) at last time point [2]: 48%; Activity (%) at peak [2]: 100%; Peak activity (time in hours) [2]: 7 h; Last time point * (time in hours) [2]: 13 h; Peak activity (time in hours) [1]: 1 h; Last time point * (time in hours) [1]: 4 h; Activity (%) at last time point [1]: 35%; Activity (%) at peak [1]: 100%
CC(C)COC(=O)COc1ccc(C(=O)CN2Cc3cc(C(=N)NC(=O)OCc4ccccc4)ccc3C2=O)cc1 [Example 13, (4-{2-[5-(Benzyloxycarbonylamino-imino-methyl)-1-oxo-1,3-dihydro-isoindol-2-yl]-acetyl}-phenoxy)-acetic acid isobutyl ester]	139 to 140	–
CC(C)OC(=O)COc1ccc(C(=O)CN2Cc3cc(C(=N)N)ccc3C2=O)cc1 (hydrate or solvate) [Example 5, (4-{2-[5-Carbamimidoyl-1-oxo-1,3-dihydro-isoindol-2-yl]-acetyl}-phenoxy)-acetic acid isopropyl ester]	162	–
CCOC(=O)COc1ccc(C(=O)CN2Cc3cc(C(=N)N)ccc3C2=O)cc1OCC(=O)OCC (as salt: salt) (hydrate or solvate) [Example 20, (4-{2-[5-Carbamimidoyl-1-oxo-1,3-dihydro-isoindol-2-yl]-acetyl}-2-ethoxycarbonylmethoxy-phenoxy)-acetic acid ethyl ester]	168 to 169	–
COC(=O)CSc1ccc(C(=O)CN2Cc3cc(C(=N)NO)ccc3C2=O)cc1 [Example 29, (4-{2-[5-(N-Hydroxycarbamimidoyl)-1-oxo-1,3-dihydro-isoindol-2-yl]-acetyl}-phenylsulfanyl)-acetic acid methyl ester]	193 to 194	–
CCOC(=O)COC1CCN(C(=O)CN2Cc3cc(C(=N)N)ccc3C2=O)CC1 (as salt: salt) (hydrate or solvate) [Example 71, (1-{2-[5-Carbamimidoyl-1-oxo-1,3-dihydro-isoindol-2-yl]-acetyl}-piperidin-4-yloxy)-acetic acid ethyl ester]	189 to 190	–
CCCc1c(OCC(=O)O)ccc(C(=O)CN2Cc3cc(C(=N)N)ccc3C2=O)c1O (as salt: trifluoroacetic acid salt) [Example 60, (4-{2-[5-Carbamimidoyl-1-oxo-1,3-dihydro-isoindol-2-yl]-acetyl}-3-hydroxy-2-propyl-phenoxy)-acetic acid]	222 to 223	–
CCCc1c(OCC(=O)OCc2ccccc2)ccc(C(=O)CN2Cc3cc(C(=N)NO)ccc3C2=O)c1O [Example 59, (3-Hydroxy-4-{2-[5-(N-hydroxycarbamimidoyl)-1-oxo-1,3-dihydro-isoindol-2-yl]-acetyl}-2-propyl-phenoxy)-acetic acid benzyl ester]	199 to 200	–
CCOC(=O)COc1ccc(C(=O)CN2Cc3cc(C(=N)NC(=O)OCC(C)C)ccc3C2=O)cc1N(CC(=O)OCC)S(C)(=O)=O (hydrate or solvate) [Example 39, (2-{Ethoxycarbonylmethyl-methanesulfonyl-amino}-4-{2-[5-(imino-isobutoxycarbonylamino-methyl)-1-oxo-1,3-dihydro-isoindol-2-yl]-acetyl}-phenoxy)-acetic acid ethyl ester]	80 to 82	–
CC(C)OC(=O)COc1ccc(C(=O)CN2Cc3cc(C(=N)NC(=O)OCc4ccccc4)ccc3C2=O)cc1 (hydrate or solvate) [Example 8, (4-{2-[5-(Benzyloxycarbonylamino-imino-methyl)-1-oxo-1,3-dihydro-isoindol-2-yl]-acetyl}-phenoxy)-acetic acid isopropyl ester]	156 to 158	–
CCOC(=O)COC1CCN(C(=O)CN2Cc3cc(C(=N)NO)ccc3C2=O)CC1 [Example 68, (1-{2-[5-(N-Hydroxycarbamimidoyl)-1-oxo-1,3-dihydro-isoindol-2-yl]-acetyl}-piperidin-4-yloxy)-acetic acid ethyl ester]	204 to 206	–
CCN(CC)C(=O)COc1ccc(C(=O)CN2Cc3cc(C(=N)N)ccc3C2=O)cc1 (as salt: salt) [Example 25, 2-(4-{2-[5-Carbamimidoyl-1-oxo-1,3-dihydro-isoindol-2-yl]-acetyl}-phenoxy)-N,N-diethyl-acetamide]	194 to 195	–
COC(=O)NC(=N)c1ccc2c(c1)CN(CC(=O)c1ccc(OCC(=O)OCc3ccccc3)cc1)C2=O (hydrate or solvate) [Example 18, (4-{2-[5-(Imino-methoxycarbonylamino-methyl)-1-oxo-1,3-dihydro-isoindol-2-yl]-acetyl}-phenoxy)-acetic acid benzyl ester]	184 to 186	–
CCOC(=O)COc1ccc(C(=O)CN2Cc3cc(C(=N)NO)ccc3C2=O)c(O)c1OCC(=O)OCC [Example 64, (2-Ethoxycarbonylmethoxy-3-hydroxy-4-{2-[5-(N-hydroxycarbamimidoyl)-1-oxo-1,3-dihydro-isoindol-2-yl]-acetyl}-phenoxy)-acetic acid ethyl ester]	153 to 155	–
CCOC(=O)COc1ccc(C(=O)CN2Cc3cc(C(=N)N)ccc3C2=O)cc1Cl (as salt: salt) [Example 30, (4-{2-[5-Carbamimidoyl-1-oxo-1,3-dihydro-isoindol-2-yl]-acetyl}-2-chloro-phenoxy)-acetic acid ethyl ester]	172 to 173	–

More lines, main results first:

melting point [°C]	Structure (SMILES)	further results
182 to 183	CCOC(=O)COc1ccc(C(=O)CN2Cc3cc(C(=N)NO)ccc3C2=O)c(O)c1SCC [Example 49, (2-Ethylsulfanyl-3-hydroxy-4-{2-[5-(N-hydroxycarbamimidoyl)-1-oxo-1,3-dihydro-isoindol-2-yl]-acetyl}-phenoxy)-acetic acid ethyl ester]	Peak activity (time in hours) [1]: 0.75 h; Last time point * (time in hours) [1]: 3 h; Activity (%) at last time point [1]: 38%; Activity (%) at peak [1]: 65%
163 to 165	CCOC(=O)COc1ccc(C(=O)CN2Cc3cc(C(=N)NO)ccc3C2=O)c(OC)c1 [Example 45, (4-{2-[5-(N-Hydroxycarbamimidoyl)-1-oxo-1,3-dihydro-isoindol-2-yl]-acetyl}-3-methoxy-phenoxy)-acetic acid ethyl ester]	–
175 to 178	CCOC(=O)COc1ccc(C(=O)CN2Cc3cc(C(=N)NO)ccc3C2=O)cc1 (hydrate or solvate) [Example 4, (4-{2-[5-(N-Hydroxycarbamimidoyl)-1-oxo-1,3-dihydro-isoindol-2-yl]-acetyl}-phenoxy)-acetic acid ethyl ester]	–
197 to 198	CCOC(=O)COc1ccc(C(=O)CN2Cc3cc(C(=N)NO)ccc3C2=O)c(O)c1 [Example 42, (3-Hydroxy-4-{2-[5-(N-hydroxycarbamimidoyl)-1-oxo-1,3-dihydro-isoindol-2-yl]-acetyl}-phenoxy)-acetic acid ethyl ester]	Activity (%) at last time point [2]: 78%; Activity (%) at peak [2]: 100%; Peak activity (time in hours) [2]: 7 h; Last time point * (time in hours) [2]: 15 h; Peak activity (time in hours) [1]: 0.75 h; Last time point * (time in hours) [1]: 6 h; Activity (%) at last time point [1]: 62%; Activity (%) at peak [1]: 100%
196 to 197	CCOC(=O)COc1ccc(C(=O)CN2Cc3cc(NC(C)=N)ccc3C2=O)c(O)c1 (as salt: iodide) (hydrate or solvate) [Example 74, (4-{2-[5-Acetimidoylamino-1-oxo-1,3-dihydro-isoindol-2-yl]-acetyl}-3-hydroxy-phenoxy)-acetic acid ethyl ester]	–
229 to 230	CCOC(=O)COc1cc(O)c(C(=O)CN2Cc3cc(C(=N)NO)ccc3C2=O)c(O)c1 [Example 63, (3,5-Dihydroxy-4-{2-[5-(N-hydroxycarbamimidoyl)-1-oxo-1,3-dihydro-isoindol-2-yl]-acetyl}-phenoxy)-acetic acid ethyl ester]	–
175 to 177	CCCOc1cc(OCC(=O)OCC)ccc1C(=O)CN1Cc2cc(C(=N)NO)ccc2C1=O (hydrate or solvate) [Example 46, (4-{2-[5-(N-Hydroxycarbamimidoyl)-1-oxo-1,3-dihydro-isoindol-2-yl]-acetyl}-3-propoxy-phenoxy)-acetic acid ethyl ester]	–
196 to 197	CCOC(=O)COc1ccc(C(=O)CN2Cc3cc(C(=N)NO)ccc3C2=O)cc1S(=O)(=O)CC [Example 36, (2-Ethanesulfonyl-4-{2-[5-(N-hydroxycarbamimidoyl)-1-oxo-1,3-dihydro-isoindol-2-yl]-acetyl}-phenoxy)-acetic acid ethyl ester]	–
